Reference: US9687486B2, “Methods of treating atherosclerosis or myeloproliferative neoplasms by administering a lyn kinase activator” (THE TRUSTEES OF COLUMBIA UNIVERSITY IN THE CITY OF NEW YORK, priority 2012, dated 2017)
Entries after “also recorded” stand apart in the source; their conditions may differ.

How the values were obtained:
Lyn tyrosine kinase = Lyn tyrosine kinase (Homo sapiens, UniProt P07948); conditions: Saporito et al. 2012; cited from earlier work
MkPs = experiment: MkP proliferation by EdU incorporation; format: cell-based, mouse; conditions: in the presence of TPO
Procedure: FIG. 3. Shown are results all from WT, Abcg4^-/- or Lyn^-/- MkPs (n=4). (A) Quantification of tyrosine-phosphorylated c-CBL in response to TPO. (B) Tyrosine-phosphorylated c-CBL levels 5 min after TPO treatment and with or without pretreatment with CD (3 mM), CD-chol (3 mM CD) for 30 min or rHDL (20 μg apoA-I/ml) for 2 hours. (C) Tyrosine-phosphorylated c-CBL with or without 5 min TPO treatment or SU6656 pretreatment (10 μg/ml for 2 h). (D) Cell surface c-MPL with or without TPO or SU6656 treatment for 2 h. (E) Tyrosine-phosphorylated c-CBL (5 min in response to TPO). (F) cell surface c-MPL (2 h TPO treatment) with or without pretreatment with CD-chol (3 mM CD) for 30 min. (G) 16 h EdU incorporation in the presence of TPO and with or without CD (3 mM), CD-Chol (3 mM CD) pretreatment for 30 min or rHDL (20 μg/ml) for 16 […]-5 and p-ERK1/2 levels with or without TPO for 10 minutes. TPO was 30 ng/ml for all the assays shown. Error bars are S.E.M. *P<0.05 WT vs Abcg4^-/- TPO and ^P<0.05 for treatment effect. Blood leukocytes and BM HSPCs were stained and analyzed or sorted as described (Murphy, A. J. et al. 2011). Briefly, BM cells from the mouse femurs and tibias were stained with a cocktail of antibodies to lineage committed cells (CD45R, CD19, CD11b, CD3e, TER-119, CD2, CD8, CD4, Ly-6C/G: All FITC, eBioscience), antibodies to Sca1 (Pacific Blue) and ckit (APC Cy7) to identify HSPC populations and LSK (lin-, Sac1+ and ckit+) cells, and antibodies to CD16/CD32 (FcγRII/III), CD34 to separate CMP (lin-, Sca1-, ckit+, CD34int, […] (lin-, Sca1-, ckit+, CD34int, […] (lin-, Sca1-, ckit+, CD34lo, FcγRII/IIIlo). For DNA content analysis (G2M phase), BM cells were fixed, and stained with DAPI (Invitrogen) prior to flow cytometry analysis. To determine in vivo cell proliferation, EdU (Invitrogen) was injected into mice via the tail vein 24 hours prior to being sacrificed. Cells were immunostained as described above in preparation for flow cytometry. Cells were then fixed and permeabilized using 0.01% saponin (w/v; Fluka) and 1% FCS (v/v) in IC fixation buffer (eBiosciences) for 30 minutes. Cells were then washed and stained with Alexa Fluor-conjugated azides using the Click-iT system (Invitrogen). Proliferation was quantified as percentage of EdU^+ cells by flow cytometry.

[1] = test system: BM cells derived from Jak2+/VF/Vavcre mice; experiment: Megakaryocyte colony formation assay, BM cells from Jak2+/VF/Vavcre mice; format: cell-based, mouse; conditions: tolimidone 10 μM, 14 days
Procedure: FIG. 22. BM cells from Jak^2+/VF/Vav^cre mice were plated and cultured for 14 days in the presence of IL-3 ([…]) and TPO (1 ng/mL) with or without tolimidone (10 μM). Megakaryocyte (Mk) colony was identified by cell morphology. Colony number/plate (a); Mk count/colony (b); and representative Mk colonies (c). Arrows indicate the projected proplatelet like structures from mature megakaryocytes. *p<0.05 between vehicle and tolimidone (10 μM).
In order to assess this possibility, megakaryocyte colony formation assay with BM cells derived from Jak2+/VF/Vavcre mice were performed. […] Moreover, many of the mature megakaryocytes in the vehicle group started to form long-projected cell structures resembling proplatelets.

[2] = test system: c-MPL(W515L) positive megakaryocyte progenitor cells; format: cell-based, mouse; conditions: tolimidone 10 μM, 10 days, IL-3 and TPO 1 ng/mL
Procedure: FIG. 21. BM cells of the recipient transplanted with BM cells expressing c-MPL(W515) were cultured for 10 days in the presence of IL-3 ([…]) and TPO (1 ng/mL) with or without tolimidone (10 μM). Megakaryocyte (Mk) colonies expressing c-MPL (W515) were identified by cell morphology and GFP expression. Identity of MK was also confirmed by staining for acetylcholinesterase activity. Count of Mk colonies (a); Mk count per colony (b); total colony per plate (c); fluorescence microscopy of a single colony (d). *p<0.05 between vehicle and tolimidone treatment.
Long-term, repeated rHDL infusions are less desirable relative to orally bioavailable small molecule compounds in treatment of chronic diseases such as MPNs. […] To assess the possibility that tolimidone limits megakaryopoiesis and thrombocytosis induced by c-MPL(W515), megakaryocyte colony formation assays with BM cells derived from mice with retroviral co-expression of c-MPL(W515L) and GFP in BM cells were used. […] Under the conditions of low TPO (1 ng/ml), the majority of cell colonies were non-megakaryocyte colonies.

c-MPL = experiment: Cell surface c-MPL levels in MkPs by flow cytometry; format: cell-based, mouse
Procedure: Detection of c-MPL from in vivo and in vitro experiments was performed as follows. After harvesting BM progenitor cells, RBCs were lysed and the cells were then resuspended in FACS buffer. Cells were then stained with a cocktail of lineage markers to allow negative selection of BM progenitor cells (Sca1, CD127, CD45R, CD19, CD11b, CD3e, TER-119, CD2, CD8, CD4, and Ly-6C/G; all FITC; eBioscience) and progenitor cell markers, ckit, CD16/CD32 (FcγRII/III), CD34, CD41 and c-MPL or isotype control and allowed to stain on ice for 30 mins. Cells were then washed and stained with a fluorescently conjugated secondary anti-rabbit antibody to detect the anti-c-MPL for a further 30 mins on ice. After this the cells were washed, resuspended in FACS buffer and run on the LSRII. MEPs were identified as lin^− ckit^+CD16/CD32^loCD34^loCD41^−, while MkPs were identified as lin^−ckit^+CD16/CD32^loCD34^loCD41^+.

platelets = experiment: Platelet count in Abcg4−/− mice with tolimidone; format: in vivo, mouse
ulcer = conditions: rats, 10 mg/kg, oral; Lipinski et al. 1980; cited from earlier work
c-CBL = experiment: c-Cbl tyrosine phosphorylation in MkPs in response to TPO, flow cytometry; format: cell-based, mouse
Procedure: BM progenitor cells were stimulated with TPO at the indicated concentration for the specified period of time at 37° C. and then immediately diluted with ice-cold buffer and placed on ice to prevent further changes in phosphorylation. Cells were then centrifuged and the pellet resuspended in BD fix buffer (BD Biosciences) for 10 mins on ice. The cells were washed with BD flow cytometry staining buffer, centrifuged and then resuspended in BD cytofix/perm buffer III for 20 mins. After this the cells were washed and resuspended in BD staining buffer and incubated with lineage (Sca1, CD127, CD45R, CD19, CD11b, CD3e, TER-119, CD2, CD8, CD4, and Ly-6G; all FITC; eBioscience) and progenitor cell markers, ckit, CD16/CD32 (FcγRII/III), CD34, CD41 and anti-phospho-c-Cbl ([…]/[…]; BD biosciences) or an isotype control for 30 mins on ice. The cells were then washed, resuspended in FACS buffer and run on an LSRII. Phosphorylated c-Cbl was normalized against isotype control staining.

Lyn tyrosine kinase, sequence (P07948 whole entry): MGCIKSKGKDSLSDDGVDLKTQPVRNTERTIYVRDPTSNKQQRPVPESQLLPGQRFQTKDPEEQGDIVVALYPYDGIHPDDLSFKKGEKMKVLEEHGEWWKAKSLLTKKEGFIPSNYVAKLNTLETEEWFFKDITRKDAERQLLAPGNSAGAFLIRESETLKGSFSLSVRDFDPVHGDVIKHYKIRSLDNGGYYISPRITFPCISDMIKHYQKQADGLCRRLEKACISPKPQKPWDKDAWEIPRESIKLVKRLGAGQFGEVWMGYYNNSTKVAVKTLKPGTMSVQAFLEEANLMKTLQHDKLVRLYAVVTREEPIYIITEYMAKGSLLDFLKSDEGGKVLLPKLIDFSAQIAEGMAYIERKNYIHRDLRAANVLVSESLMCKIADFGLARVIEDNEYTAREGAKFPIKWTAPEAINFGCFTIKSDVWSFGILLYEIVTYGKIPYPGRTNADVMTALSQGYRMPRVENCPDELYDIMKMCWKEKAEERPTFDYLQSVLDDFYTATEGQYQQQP

Cc1cccc(Oc2cnc(=O)[nH]c2)c1 [Tolimidone]
Lyn kinase activity (Lyn tyrosine kinase): selectively increases; also recorded: potent and selective
MkP proliferation (MkPs; Abcg4−/− MkPs): decreases
MkP proliferation (MkPs; WT MkPs): decreased
proportion of megakaryocytes that generated proplatelets [1]: reduced
number of megakaryocyte colonies ([1]; IL-3 and TPO 1 ng/mL): decreased
number of megakaryocytes in each colony ([1]; IL-3 and TPO 1 ng/mL): decreased
GFP-positive megakaryocytes in each colony [2]: significantly reduced
number of GFP-positive megakaryocyte colonies [2]: significantly reduced
total number of colonies [2]: did not significantly affect
cell surface c-MPL levels (c-MPL; Abcg4−/− MkPs, TPO 30 ng/ml): reverses; also recorded: reduces
cell surface c-MPL levels (c-MPL; Abcg4−/− MkPs, tolimidone 10 μM and TPO for 2 h (FIG. 16)): significantly reduced
effects in Lyn−/− MkPs (c-MPL, c-Cbl phosphorylation, proliferation) (c-MPL; Lyn−/− MkPs, expected): no effects
cell surface c-MPL levels (c-MPL; WT MkPs, TPO 30 ng/ml): decreased
cell surface c-MPL levels (c-MPL; WT and Abcg4−/− MkPs, BM cells of hypercholesterolemic Ldlr−/− mice, Tolimidone 10 μM, 30 ng/ml TPO, 2 hours (FIG. 20)): significantly reduced
platelet count (platelets): reduces
anti-ulcer activity (ulcer): oral-active anti-ulcer activity
c-CBL tyrosine phosphorylation (c-CBL; Abcg4−/− MkPs): increases
c-CBL tyrosine phosphorylation (c-CBL; WT MkPs): increased
